Source: US20210401931A1, “METHODS AND MATERIALS FOR TREATING CANCER” (Mayo Foundation for Medical Education and Research, priority 2018, published 2021)
Ends that are not written are not given here.

What was measured:
PD-L1 [1] = test: PD-L1 expression (western blot, RT-qPCR) in PC-3 cells expressing RL peptide; assay type: cell-based, human; details: for gamma irradiation-induced upregulation of PD-L1: 12 Gy
Description: FIGS. 5A-K. The importance of S249/T252 phosphorylation of RB in regulation of PD-L1 expression. (A, B) PC-3 cells were infected with lentivirus expressing control shRNA, RB1-specific, p65-specific, or both shRNA. 48 hours post puromycin selection, cells were harvested for western blotting (A) and RT-qPCR analysis (B). All data were shown as mean values±SD (n=3). * P<0.05, ** P<0.01, *** P<0.001. (C, D) DU145 cells were transfected with indicated plasmids. 24 hours after transfection, cells were harvested for western blotting analysis (C) and RT-qPCR analysis (D). All data were shown as mean values±SD (n=3). * P<0.05, ** P<0.01, *** P<0.001. (E, F) DU145 cells were transfected with indicated plasmids. 24 hours after transfection, cells were harvested for western blotting analysis (E) and RT-qPCR analysis (F). All data were shown as mean values±SD (n=3). * P<0.05, ** P<0.01, *** P<0.001. (G, H) PC-3 cells were infected with lentivirus expressing control shRNA or p65-specific shRNAs. After 24 hours, cells were further transfected with empty vector or SFB-RL-S249D/T252D for another 24 hours followed by western blot analysis (G) and RT-qPCR analysis (H). All data were shown as mean values±SD (n=3). * P<0.05, ** P<0.01, *** P<0.001. (I) Representative images of IHC of anti-PD-L1 and anti-pRB-S249/T252 antibodies of TMA (n=145 TMA elements) tissue sections. Scale bars were shown as indicated. (J) Heatmap showing IHC score of PD-L1 and pRB-S249/T252 in TMA. (K) Correlation analysis of IHC score for expression of PD-L1 and pRB-S249/T252 polypeptides in prostate cancer patient specimens (n=145 TMA elements). Pearson's product-moment correlation co-efficiency and the P values were also shown.
FIGS. 6A-J. The small S249/T252 phosphorylation-mimicking polypeptide of RB blocks irradiation-induced PD-L1 expression and inhibits cancer immune evasion. (A, B) PC-3 cells were infected with lentivirus expressing control shRNA or p65-specific or shRNA. 24 hours after puromycin selection, cells were treated with or without gamma irradiation (IR) (12 Gy). 48 hours after IR treatment, cells were harvested for western blotting analysis (A) and RT-qPCR analysis (B). All data were shown as mean values±SD (n=3). * P<0.05, ** P<0.01, *** P<0.001. (C, D) PC-3 cells were treated with without gamma irradiation (12 Gy). Cells were harvested at the indicated time point for western blotting analysis (C) and RT-qPCR analysis (D). All data were shown as mean values±SD (n=3). * P<0.05, ** P<0.01, *** P<0.001. (E) Western blot analysis of WCL and co-IP samples in PC-3 cells 48 hours after treated with or without gamma irradiation (12 Gy). (F) ChIP-qPCR analysis of p65 binds at the PD-L1 promotor in PC-3 cells 48 hours after treated with or without gamma irradiation (12 Gy). All data were shown as mean values±SD (n=3). * P<0.05, ** P<0.01, *** P<0.001. (G, H) PC-3 cells were treated with or without gamma irradiation (12 Gy). 24 hours post treatment, cells were transfected with indicated constructs. 24 hours after transfection, cells were harvested for western blotting analysis (G) and RT-qPCR analysis (H). All data were shown as mean values±SD (n=3). * P<0.05, ** P<0.01, *** P<0.001. (I) PTEN-CaP8 mouse prostate cancer cells were transduced with lentivirus for control vector or the small RB S249/T252-phosphorylation-mimicking polypeptide RL-S249D/T252D. 72 hours after purimycin selection, 5×10^6 control or RL-S249D/T252D-expressing cells were injected subcutaneously into C57BL/6 mice. Mice (n=8/group) were treated with gamma irradiation (12 Gy) or mock treated, and with anti-PD-L1 (200 μg) or non-specific IgG for 45 days. (J) The absolute number of CD45^+CD8^+ T cells, CD45^+CD4^+ T cells, and CD11b^+Gr1^+ myeloid cells of implanted PTEN-CaP8 in tumors treated with indicated agents was analyzed by FACS. All data were shown as mean values±SD (n=8). ns, not significant, *** P<0.001.
Total RNA was isolated using TRIzol reagent (Thermo Fisher Scientific). […]

PD-L1 [2] = test: PD-L1 expression in cell lines of other cancer types (PANC-1, H1299, SK-Hep1) expressing RL peptide; assay type: cell-based, human; details: listed as RL-S249/T252D peptide
Description: FIGS. 12A-C. (A, B) PANC-1, H1299, and SK-Hep1 were infected with lentivirus expressing control or RB-specific shRNAs following puromycin selection. 48 hours post infection, cells were transfected with indicated construct. 24 hours after transfection, cells were harvested for western blotting (A) and RT-qPCR (B). All data were shown as mean values±SD (n=3). “ns”=not significant, *** P<0.001. (C) Western blot analysis of expression of PD-L1, RB, pRB-S249/T252, pRB-5795, and ERK2 in prostate cancer cell lines indicated.
Total RNA was isolated using TRIzol reagent (Thermo Fisher Scientific). The NanoDrop 2000 spectrophotometer (Thermo Fisher Scientific) was used to assess RNA yield and quality. RNA was reversely transcribed using Superscript reverse transcriptase (Thermo Fisher Scientific) following manufacturer's instructions. Quantitative real-time PCR was performed by mixing cDNA, gene-specific primers, and IQ SYRB Green Supermix and detected by iCycler QTX detection system (Bio-Rad). The 2-ΔCt method was used to quantitate fold changes by normalizing to GAPDH. Primers for RT-qPCR are provided Table 4.
Cells were harvested and lysed by IP buffer, and the supernatant was quantified by BCA protein quantification assay. Equal amounts of protein sample were added into 4× sample buffer and boiled for 5 minutes. […]

“RL-S249D/T252D: S249/T252 phospho-mimicking R-Linker (RL) peptide: fragment of RB-N containing 21 amino acids surrounding S249/T252, expressed SFB-tagged or by lentivirus (NGDPRDPRRGQNRSARIAKQL; also: expressed SFB-tagged (tag left off))” was tested, and the “PD-L1 expression in p65-proficient cells” value (PD-L1 [1]; PC-3 cells transfected with SFB-tagged peptide, 24 hours) was “largely inhibited”, the “PD-L1 expression (FIG. 6G)” value (PD-L1 [1]; PC-3 cells transfected with peptide construct) was “almost completely blocked” and the “PD-L1 expression in p65-depleted cells” value (PD-L1 [1]; PC-3 cells with p65 shRNA, transfected with SFB-tagged peptide, listed as RL-S249/T252D peptide) was “little or no effect”. For the same substance, the “gamma irradiation-induced upregulation of PD-L1” value (PD-L1 [1]; PC-3 cells, ectopic expression of peptide) was “largely, but not completely blocked”, the “gamma irradiation-induced upregulation of PD-L1” value (PD-L1 [1]; PC-3 cells, ectopic expression of peptide, listed as RL-S249/T252D) was “largely diminished” and the PD-L1 basal level (PD-L1 [1]; PC-3 cells, ectopic expression of peptide, no irradiation) was “decreased”. The “PD-L1 expression in cell lines of other cancer types” value (PD-L1 [2]) was “inhibited”.
